Test results taken from patent publication US12336991B2, “Factor XIIA inhibitors” (UNIVERSITY OF LEEDS, priority 2018, dated 2025).

Assays:
Type in all cases: biochemical
FXIIa = molecular target: T1, FXIIa (Homo sapiens, UniProt P00748); assay: Determination of Factor XIIa inhibition, chromogenic substrate S-2302 assay; conditions: human FXIIa alpha
T1 sequence (P00748 373-615 limits assumed): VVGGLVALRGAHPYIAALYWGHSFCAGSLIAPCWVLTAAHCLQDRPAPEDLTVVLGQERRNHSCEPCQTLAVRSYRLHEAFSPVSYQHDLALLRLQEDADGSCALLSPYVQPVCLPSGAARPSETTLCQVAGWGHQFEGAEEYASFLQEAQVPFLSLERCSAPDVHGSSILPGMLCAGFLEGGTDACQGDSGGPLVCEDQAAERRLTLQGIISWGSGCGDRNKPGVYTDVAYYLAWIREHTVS
T1 sequence (P00748 20-372 partner limits assumed): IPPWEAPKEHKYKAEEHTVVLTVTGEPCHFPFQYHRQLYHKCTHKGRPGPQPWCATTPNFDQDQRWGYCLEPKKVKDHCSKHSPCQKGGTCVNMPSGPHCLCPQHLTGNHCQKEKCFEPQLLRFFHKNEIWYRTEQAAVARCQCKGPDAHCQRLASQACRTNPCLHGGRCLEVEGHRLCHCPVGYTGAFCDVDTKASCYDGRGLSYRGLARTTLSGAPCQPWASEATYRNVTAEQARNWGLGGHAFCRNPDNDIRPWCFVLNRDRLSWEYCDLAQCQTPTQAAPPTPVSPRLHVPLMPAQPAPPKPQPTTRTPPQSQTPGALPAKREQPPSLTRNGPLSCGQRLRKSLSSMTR
In short: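 FXIIa (10 nM) preincubated with compound 10 min at 37° C. in 50 mM Tris, 137 mM NaCl pH 7.4, 5% DMSO, top concentration 500 μM, then S-2302 added ([…]). Absorbance at 405 nm read kinetically for 3 h; IC50 from initial rates, converted to Ki by Cheng-Prusoff.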

thrombin = molecular target: T2, thrombin (Homo sapiens, UniProt P00734); assay: Determination of selectivity: thrombin inhibition, chromogenic substrate GPR assay; conditions: fold selectivity for FXIIa over thrombin
T2 construct: FXa (5 nM) and thrombin (5 nM)
In short: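 Thrombin (5 nM) preincubated with compound 10 min at 37 °C in 50 mM Tris, 137 mM NaCl, pH 7.4, 5% DMSO, then GPR substrate ([…]) added. Absorbance at 405 nm read kinetically for 3 h; IC50 from initial rates, converted to Ki via Ki=IC50/(1+[S]/Km).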

FXa = FXa (Homo sapiens, UniProt P00742); assay: Determination of selectivity: FXa inhibition, chromogenic substrate S2765 assay; conditions: fold selectivity for FXIIa over FXa
In short: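 Human FXa (5 nM) preincubated with compound (top 500 μM, 5% DMSO) 10 min at 37 °C in 50 mM Tris, 137 mM NaCl pH 7.4, then S2765 ([…]) added; A405 kinetics over 3 h at 37 °C. IC50 from initial rates, converted to Ki via Cheng-Prusoff.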

Sequence of FXa (P00742 235-488 limits assumed): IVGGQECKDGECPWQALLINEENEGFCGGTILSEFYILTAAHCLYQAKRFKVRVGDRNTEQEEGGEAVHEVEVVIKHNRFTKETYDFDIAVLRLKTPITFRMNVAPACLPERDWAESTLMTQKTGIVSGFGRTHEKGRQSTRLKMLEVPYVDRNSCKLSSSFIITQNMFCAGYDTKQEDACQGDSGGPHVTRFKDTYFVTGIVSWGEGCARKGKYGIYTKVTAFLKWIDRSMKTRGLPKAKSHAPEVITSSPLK
Sequence of FXa (P00742 41-179 partner limits assumed): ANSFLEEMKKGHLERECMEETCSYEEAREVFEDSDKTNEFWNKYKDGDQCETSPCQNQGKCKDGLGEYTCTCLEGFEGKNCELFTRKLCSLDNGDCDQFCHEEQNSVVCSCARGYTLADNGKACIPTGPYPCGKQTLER

Row | Structure (SMILES) | Ki (FXIIa) [nM] | FXa (human)/FXIIa alpha (human) (FXa) | Thrombin (human)/FXIIa alpha (human) (thrombin)
1 | NCc1ccc(CNC(=O)[C@@H]2C[C@H](O)CN2C(=O)[C@H](N)CCc2ccccc2)cc1 [Example M00626] | > 2000 | ∘∘ | ++ (fold selectivity value of 10 to 100)
2 | Cn1nnc2cc(CNC(=O)[C@@H]3C[C@H](NCc4ccccc4)CN3C(=O)[C@H](N)CCc3ccccc3)ccc21 [Example M05158] | > 2000 | ∘∘ | ++ (fold selectivity value of 10 to 100)
3 | Cn1nnc2cc(CNC(=O)[C@@H]3C[C@@H](Cc4ccccc4C#N)CN3C(=O)[C@H]3C[C@@H](c4ccccc4)CN3)ccc21 [Example M05337] | > 2000 | ∘∘ | ++ (fold selectivity value of 10 to 100)
4 | Cn1nnc2cc(CNC(=O)[C@@H]3CC(Cc4ccc(F)c(Cl)c4F)CN3C(=O)[C@H](N)CCC(=O)N3CCCC3)ccc21 (stereo partly drawn) [Example M05295] | 200 to 2000 | ∘∘∘ | +++ (fold selectivity values greater than 100)
5 | Cn1nnc2cc(CNC(=O)[C@]3(C)CCCN3C(=O)[C@H](N)CCC(=O)N3CCCC3)ccc21 [Example M05318] | > 2000 | ∘∘ | + (fold selectivity values less than 10)
6 | Cn1nccc1C[C@H]1C[C@@H](C(=O)NCc2ccc3c(c2)nnn3C)N(C(=O)[C@H](N)CCC(=O)N2CCCC2)C1 [Example M05294] | 200 to 2000 | ∘∘∘ | ++ (fold selectivity value of 10 to 100)
7 | Cn1nnc2cc(CNC(=O)[C@@H]3C[C@H](Cc4cccc(F)c4)CN3C(=O)[C@H](N)CCC(=O)N3CCCC3)ccc21 [Example M05232] | 200 to 2000 | ∘∘∘ | +++ (fold selectivity values greater than 100)
8 | COc1cc(CNC(=O)[C@@H]2C[C@H](O)CN2C(=O)[C@H](N)CCc2ccccc2)ccc1CN [Example M05056] | 200 to 2000 | ∘∘∘ | +++ (fold selectivity values greater than 100)
9 | CN(C)[C@H](CCC(=O)N1CCCC1)C(=O)N1C[C@H](Cc2cccnc2)C[C@H]1C(=O)NCc1ccc2c(c1)c(Cl)nn2C [Example M05219] | < 200 | ∘∘∘ | +++ (fold selectivity values greater than 100)
10 | O=C(NCc1cc2cnccc2[nH]1)[C@@H]1C[C@@H](Cc2ccc(C(F)(F)F)cc2)CN1C(=O)C1NCCc2cc(Cl)ccc21 (stereo partly drawn) [Example M00970] | 200 to 2000 | ∘∘∘ | ++ (fold selectivity value of 10 to 100)
11 | COc1ccc(C[C@@H]2C[C@@H](C(=O)NCc3cc4cnccc4[nH]3)N(C(=O)C3C[C@@H](C(=O)N4CCCC4)CCN3)C2)cc1 (stereo partly drawn) [Example M00966] | < 200 | ∘∘∘ | +++ (fold selectivity values greater than 100)
12 | Cn1nnc2cc(CNC(=O)[C@@H]3C[C@H](Cc4ccccn4)CN3C(=O)[C@H](N)CCC(=O)N3CCCC3)ccc21 [Example M05296] | 200 to 2000 | ∘∘∘ | +++ (fold selectivity values greater than 100)
13 | COc1ccc(C[C@@H]2C[C@@H](C(=O)NCc3ccc4c(c3)nnn4C)N(C(=O)[C@H](N)CCC(=O)N3[C@H]4CC[C@@H]3CC4)C2)cc1 [Example M05394] | 200 to 2000 | ∘∘∘ | +++ (fold selectivity values greater than 100)
14 | COc1ccc(C[C@@H]2C[C@@H](C(=O)NCc3cc4cnccc4[nH]3)N(C(=O)C3NCCc4cc(Cl)ccc43)C2)cc1 (stereo partly drawn) [Example M00965] | < 200 | ∘∘∘ | +++ (fold selectivity values greater than 100)
15 | Nc1cc(CNC(=O)[C@@H]2C[C@@](O)(c3ccccc3)CN2C(=O)[C@H](N)CCc2ccccc2)ccn1 [Example M05125] | 200 to 2000 | ∘∘ | ++ (fold selectivity value of 10 to 100)
16 | COc1ccc(C[C@@H]2C[C@@H](C(=O)NCc3cc4cnccc4[nH]3)N(C(=O)C3NCCc4cc(OC)ccc43)C2)cc1 (single isomer, unassigned) [Example M00963] | < 200 | ∘∘∘ | +++ (fold selectivity values greater than 100)
17 | Cn1ncc2cc(CNC(=O)[C@@H]3C[C@@H](c4ccccc4)CN3C(=O)[C@H](N)CCc3ccccc3)ccc21 [Example M05188] | > 2000 | ∘∘ | ++ (fold selectivity value of 10 to 100)
18 | COc1ccc(C[C@@H]2C[C@@H](C(=O)NCc3cc4cnccc4[nH]3)N(C(=O)[C@H]3C[C@@H](C(=O)N4CCCC4(C)C)CCN3)C2)cc1 [Example M00967] | < 200 | ∘∘∘ | +++ (fold selectivity values greater than 100)
19 | Cn1nnc2cc(CNC(=O)[C@@H]3CC(Cc4ccc(C#N)cc4)CN3C(=O)[C@H](N)CCC(=O)N3CCCC3)ccc21 (stereo partly drawn) [Example M05312] | 200 to 2000 | ∘∘∘ | +++ (fold selectivity values greater than 100)

Continued, in another order:

Row | Ki (FXIIa) [nM] | FXa (human)/FXIIa alpha (human) (FXa) | Structure (SMILES) | Thrombin (human)/FXIIa alpha (human) (thrombin)
20 | < 200 | ∘∘∘ | COc1ccc(C[C@@H]2C[C@@H](C(=O)NCc3ccc4c(c3)nnn4C)N(C(=O)C3NCCc4cc(Br)ccc43)C2)cc1 (stereo partly drawn) [Example M05470] | +++ (fold selectivity values greater than 100)
21 | > 2000 | ∘∘ | COc1ccc(C[C@@H]2C[C@@H](C(=O)NCc3ccc4c(c3)nnn4C)N(C(=O)[C@@H]3NCCc4ccccc43)C2)cc1 [Example M05368] | ++ (fold selectivity value of 10 to 100)
22 | 200 to 2000 | ∘∘∘ | COc1ccc(C[C@@H]2C[C@@H](C(=O)NCc3ccc4c(c3)nnn4C)N(C(=O)[C@H]3CC(c4ccccc4C(F)(F)F)CN3)C2)cc1 (stereo partly drawn) [Example M05397] | +++ (fold selectivity values greater than 100)
23 | > 2000 | ∘∘ | COc1ccc(C[C@@H]2C[C@@H](C(=O)NCc3ccc4c(c3)nnn4C)N(C(=O)[C@H]3CC(c4ccc(Cl)cc4)CN3)C2)cc1 (stereo partly drawn) [Example M05346] | ++ (fold selectivity value of 10 to 100)
24 | 200 to 2000 | ∘∘∘ | COc1ccc(C[C@@H]2C[C@@H](C(=O)NCc3ccc4c(c3)nnn4C)N(C(=O)[C@H]3C[C@@H](Cc4ccccc4)CN3)C2)cc1 [Example M05383] | ++ (fold selectivity value of 10 to 100)
25 | 200 to 2000 | ∘∘∘ | Cn1nnc2cc(CNC(=O)[C@@H]3C[C@@H](Cc4ccc(Br)cc4)CN3C(=O)[C@H]3C[C@@H](c4ccccc4)CN3)ccc21 [Example M05342] | ++ (fold selectivity value of 10 to 100)
26 | 200 to 2000 | ∘∘∘ | COc1ccc(C[C@@H]2C[C@@H](C(=O)NCc3ccc4c(c3)nnn4C)N(C(=O)[C@H]3C[C@@H](n4ccccc4=O)CN3)C2)cc1 [Example M00958] | +++ (fold selectivity values greater than 100)
27 | > 2000 | ∘ | Cn1nnc2cc(CNC(=O)[C@@H]3C[C@@H](Cc4ccccc4Cl)CN3C(=O)[C@H]3C[C@@H](c4ccccc4)CN3)ccc21 [Example M05333] | ++ (fold selectivity value of 10 to 100)
28 | 200 to 2000 | ∘∘ | CC(C)Oc1ccc(CC2C[C@@H](C(=O)NCc3ccc4c(c3)nnn4C)N(C(=O)[C@H]3C[C@@H](c4ccccc4)CN3)C2)cc1 (stereo partly drawn) [Example M05349] | ++ (fold selectivity value of 10 to 100)
